ChEMBL document CHEMBL1201862, “PubChem BioAssay data set” (2004)
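Step 1: Grow cells in 96-well plates. Step 2: Expose to compound for 48 hours at 5 concentrations. Step 3: Interpolate endpoints linearly; if unreached, use highest concentration. GI50 is the concentration that inhibits growth by half.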 Calls of active or inactive are those of the source. Rule as the data show it: active = GI50 up to about 1.1 µM and inactive = higher.

Key:
Assay in all cases: NCI anticancer screen, dose series, 48 h
[1] = tested on: SR
[2] = tested on: NCI/ADR-RES
[3] = tested on: OVCAR-3
[4] = tested on: RPMI-8226
[5] = tested on: SNB-19
[6] = tested on: CCRF-CEM
[7] = tested on: NCI-H522
[8] = tested on: HOP-62
[9] = tested on: BT-549
[10] = tested on: MDA-MB-435
[11] = tested on: HL-60
[12] = tested on: SK-MEL-2
[13] = tested on: TK-10
[14] = tested on: KM12
[15] = tested on: HCT-15
[16] = tested on: COLO 205
[17] = tested on: HCT-116
[18] = tested on: SK-MEL-5
[19] = tested on: K562
[20] = tested on: SK-OV-3
[21] = tested on: LOX IMVI
[22] = tested on: HT-29
[23] = tested on: MCF7
[24] = tested on: MDA-N
[25] = tested on: SF-539
[26] = tested on: NCI-H460
[27] = tested on: MDA-MB-231
[28] = tested on: SK-MEL-28
[29] = tested on: SF-295
[30] = tested on: T47D
[31] = tested on: DU-145
[32] = tested on: OVCAR-8
[33] = tested on: UACC-62
[34] = tested on: A549
[35] = tested on: M14
[36] = tested on: PC-3
[37] = tested on: NCI-H226
[38] = tested on: OVCAR-5
[39] = tested on: NCI-H23
[40] = tested on: A498
[41] = tested on: ACHN
[42] = tested on: UACC-257
[43] = tested on: SN12C
[44] = tested on: CAKI-1
[45] = tested on: MOLT-4
[46] = tested on: UO-31
[47] = tested on: EKVX
[48] = tested on: 786-0
[49] = tested on: SF-268
[50] = tested on: Hs-578T
[51] = tested on: U-251
[52] = tested on: OVCAR-4
[53] = tested on: SW-620
[54] = tested on: SNB-75
[55] = tested on: IGROV-1
[56] = tested on: RXF 393
[57] = tested on: HCC 2998

N/C(=N\c1c([N+](=O)[O-])cnc2ccccc12)N1CCOCC1
GI50 [1]: > 100 µM (inactive)
GI50 [2]: 95.9 µM (inactive)
GI50 [3]: > 100 µM (inactive)
GI50 [4]: > 100 µM (inactive)
GI50 [5]: > 100 µM (inactive)
GI50 [6]: > 100 µM (inactive)
GI50 [7]: > 100 µM (inactive)
GI50 [8]: > 100 µM (inactive)
GI50 [9]: > 100 µM (inactive)
GI50 [10]: > 100 µM (inactive)
GI50 [11]: > 100 µM (inactive)
GI50 [12]: > 100 µM (inactive)
GI50 [13]: > 100 µM (inactive)
GI50 [14]: > 100 µM (inactive)
GI50 [15]: > 100 µM
GI50 [16]: > 100 µM (inactive)
GI50 [17]: > 100 µM (inactive)
GI50 [18]: > 100 µM (inactive)
GI50 [19]: > 100 µM (inactive)
GI50 [20]: > 100 µM (inactive)
GI50 [21]: > 100 µM (inactive)
GI50 [22]: > 100 µM (inactive)
GI50 [23]: > 100 µM (inactive)
GI50 [24]: > 100 µM (inactive)
GI50 [25]: > 100 µM (inactive)
GI50 [26]: > 100 µM (inactive)
GI50 [27]: > 100 µM (inactive)
GI50 [28]: > 100 µM (inactive)
GI50 [29]: 86.9 µM (inactive)
GI50 [30]: > 100 µM (inactive)
GI50 [31]: > 100 µM (inactive)
GI50 [32]: > 100 µM (inactive)
GI50 [33]: > 100 µM (inactive)
GI50 [34]: > 100 µM (inactive)
GI50 [35]: > 100 µM (inactive)
GI50 [36]: > 100 µM (inactive)
GI50 [37]: > 100 µM (inactive)
GI50 [38]: > 100 µM (inactive)
GI50 [39]: > 100 µM (inactive)
GI50 [40]: > 100 µM (inactive)
GI50 [41]: > 100 µM (inactive)
GI50 [42]: > 10 µM (inactive)
GI50 [43]: > 100 µM (inactive)
GI50 [44]: > 100 µM (inactive)
GI50 [45]: > 100 µM (inactive)
GI50 [46]: > 100 µM (inactive)
GI50 [47]: > 100 µM (inactive)
GI50 [48]: > 100 µM (inactive)
GI50 [49]: > 100 µM (inactive)
GI50 [50]: > 100 µM (inactive)
GI50 [51]: > 100 µM (inactive)
GI50 [52]: > 100 µM (inactive)
GI50 [53]: > 100 µM (inactive)
GI50 [54]: > 100 µM (inactive)
GI50 [55]: > 100 µM (inactive)

O=[N+]([O-])c1ccc(Cl)cc1N/N=C/c1cccc2cccnc12
GI50 [1]: 15.3 µM (inactive)
GI50 [2]: > 100 µM (inactive)
GI50 [3]: > 100 µM (inactive)
GI50 [4]: 20.3 µM (inactive)
GI50 [5]: 31.3 µM (inactive)
GI50 [6]: 34.8 µM (inactive)
GI50 [7]: > 100 µM (inactive)
GI50 [8]: > 100 µM (inactive)
GI50 [9]: > 100 µM (inactive)
GI50 [10]: > 100 µM (inactive)
GI50 [11]: > 100 µM (inactive)
GI50 [13]: > 100 µM (inactive)
GI50 [14]: > 100 µM (inactive)
GI50 [15]: > 100 µM
GI50 [16]: > 100 µM (inactive)
GI50 [17]: 54 µM (inactive)
GI50 [18]: > 100 µM (inactive)
GI50 [19]: 89.9 µM (inactive)
GI50 [20]: > 100 µM (inactive)
GI50 [22]: > 100 µM (inactive)
GI50 [56]: > 100 µM (inactive)
GI50 [23]: > 100 µM (inactive)
GI50 [24]: > 100 µM (inactive)
GI50 [25]: 95.1 µM (inactive)
GI50 [26]: > 100 µM (inactive)
GI50 [27]: > 100 µM (inactive)
GI50 [28]: > 100 µM (inactive)
GI50 [29]: > 100 µM (inactive)
GI50 [30]: > 100 µM (inactive)
GI50 [31]: > 100 µM (inactive)
GI50 [32]: 48.2 µM (inactive)
GI50 [33]: > 100 µM (inactive)
GI50 [34]: > 100 µM (inactive)
GI50 [35]: > 100 µM (inactive)
GI50 [36]: > 100 µM (inactive)
GI50 [39]: > 100 µM (inactive)
GI50 [41]: > 100 µM (inactive)
GI50 [42]: > 100 µM (inactive)
GI50 [43]: > 100 µM (inactive)
GI50 [44]: > 100 µM (inactive)
GI50 [45]: 39.7 µM (inactive)
GI50 [46]: 33.1 µM (inactive)
GI50 [47]: > 100 µM (inactive)
GI50 [57]: > 100 µM (inactive)
GI50 [48]: > 100 µM (inactive)
GI50 [49]: > 100 µM (inactive)
GI50 [50]: 30.8 µM (inactive)
GI50 [51]: 79.1 µM (inactive)
GI50 [52]: 92.7 µM (inactive)
GI50 [53]: 96.6 µM (inactive)
GI50 [54]: 59.2 µM (inactive)
GI50 [55]: > 100 µM (inactive)

O=C1/C(=C/c2ccc(Cl)cc2)Oc2cc(O)ccc21 [6-HYDROXY-4'-CHLORO AURONE]
GI50 [1]: 20.2 µM (inactive)
GI50 [2]: 24.9 µM (inactive)
GI50 [3]: 34.7 µM (inactive)
GI50 [4]: 30.6 µM (inactive)
GI50 [5]: 26.6 µM (inactive)
GI50 [6]: 20.2 µM (inactive)
GI50 [7]: 23.8 µM (inactive)
GI50 [8]: 32.7 µM (inactive)
GI50 [9]: 26.8 µM (inactive)
GI50 [10]: 36.1 µM (inactive)
GI50 [11]: 18.1 µM (inactive)
GI50 [13]: 30.5 µM (inactive)
GI50 [14]: 38.5 µM (inactive)
GI50 [15]: 32.6 µM
GI50 [16]: > 100 µM (inactive)
GI50 [17]: 30.5 µM (inactive)
GI50 [18]: 23.4 µM (inactive)
GI50 [19]: 19.1 µM (inactive)
GI50 [20]: 30.6 µM (inactive)
GI50 [56]: 39.4 µM (inactive)
GI50 [23]: 34 µM (inactive)
GI50 [24]: 30.2 µM (inactive)
GI50 [25]: 21.9 µM (inactive)
GI50 [26]: 25.1 µM (inactive)
GI50 [27]: 34.6 µM (inactive)
GI50 [28]: 59.6 µM (inactive)
GI50 [29]: 38.4 µM (inactive)
GI50 [30]: 37.1 µM (inactive)
GI50 [31]: 41.4 µM (inactive)
GI50 [32]: 31.9 µM (inactive)
GI50 [33]: 34.2 µM (inactive)
GI50 [34]: 30.1 µM (inactive)
GI50 [35]: 50.6 µM (inactive)
GI50 [36]: 30.2 µM (inactive)
GI50 [37]: 28.2 µM (inactive)
GI50 [39]: 36.2 µM (inactive)
GI50 [41]: 28.1 µM (inactive)
GI50 [42]: 31.2 µM (inactive)
GI50 [43]: 29.8 µM (inactive)
GI50 [44]: > 10 µM (inactive)
GI50 [45]: 19.6 µM (inactive)
GI50 [46]: 20.5 µM (inactive)
GI50 [47]: 29.2 µM (inactive)
GI50 [57]: 39.3 µM (inactive)
GI50 [48]: 33.3 µM (inactive)
GI50 [49]: 52.8 µM (inactive)
GI50 [50]: 14.7 µM (inactive)
GI50 [51]: 26.5 µM (inactive)
GI50 [52]: 47.5 µM (inactive)
GI50 [53]: 44.6 µM (inactive)
GI50 [54]: 31.6 µM (inactive)
GI50 [55]: 33.4 µM (inactive)
